Measured values from patent US10259810B2, “N-sulfonylated pyrazolo[3,4-b]pyridin-6-carboxamides and method of use” (AbbVie S.à.r.l., priority 2015, dated 2019).

How the values were obtained:
ΔF508-CFTR [1] = target: T1, ΔF508-CFTR (Homo sapiens, UniProt P13569, DEL508-508); experiment: CFTR cell surface levels using HRP-tagged ΔF508-CFTR expressing CFBE cells, in the presence of a co-corrector; assay type: cell-based; settings: HRP-tagged ΔF508-CFTR CFBE cells, in the presence of 3 μM co-corrector; for EC50: read-out: EC50
T1 construct: host or cells: CFBE41o-, doxycycline-inducible
In short: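 Chemiluminescent read-out of surface HRP (15 min, dark) after PBS washes. Activity is normalized as 100×(sample−DMSO)/(3 μM co-corrector alone−DMSO).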

ΔF508-CFTR [2] = target: T1, ΔF508-CFTR; experiment: CFTR cell surface levels using HRP-tagged ΔF508-CFTR expressing CFBE cells, intrinsic corrector capacity; assay type: cell-based; set-up: % Activation: concentration or dose not given beside the values; settings: HRP-tagged ΔF508-CFTR expressing CFBE41o- cells, compound alone (intrinsic corrector capacity), 20 hours at 33° C.; for EC50: read-out: EC50
In short: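 Read-out: chemiluminescent HRP activity of ECL4-HRP-tagged ΔF508-CFTR at the cell surface, 15 min substrate in dark. Normalized as 100×(sample−DMSO)/(positive control−DMSO).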

T1 sequence (P13569 with tags, fused parts or gaps DEL508-508): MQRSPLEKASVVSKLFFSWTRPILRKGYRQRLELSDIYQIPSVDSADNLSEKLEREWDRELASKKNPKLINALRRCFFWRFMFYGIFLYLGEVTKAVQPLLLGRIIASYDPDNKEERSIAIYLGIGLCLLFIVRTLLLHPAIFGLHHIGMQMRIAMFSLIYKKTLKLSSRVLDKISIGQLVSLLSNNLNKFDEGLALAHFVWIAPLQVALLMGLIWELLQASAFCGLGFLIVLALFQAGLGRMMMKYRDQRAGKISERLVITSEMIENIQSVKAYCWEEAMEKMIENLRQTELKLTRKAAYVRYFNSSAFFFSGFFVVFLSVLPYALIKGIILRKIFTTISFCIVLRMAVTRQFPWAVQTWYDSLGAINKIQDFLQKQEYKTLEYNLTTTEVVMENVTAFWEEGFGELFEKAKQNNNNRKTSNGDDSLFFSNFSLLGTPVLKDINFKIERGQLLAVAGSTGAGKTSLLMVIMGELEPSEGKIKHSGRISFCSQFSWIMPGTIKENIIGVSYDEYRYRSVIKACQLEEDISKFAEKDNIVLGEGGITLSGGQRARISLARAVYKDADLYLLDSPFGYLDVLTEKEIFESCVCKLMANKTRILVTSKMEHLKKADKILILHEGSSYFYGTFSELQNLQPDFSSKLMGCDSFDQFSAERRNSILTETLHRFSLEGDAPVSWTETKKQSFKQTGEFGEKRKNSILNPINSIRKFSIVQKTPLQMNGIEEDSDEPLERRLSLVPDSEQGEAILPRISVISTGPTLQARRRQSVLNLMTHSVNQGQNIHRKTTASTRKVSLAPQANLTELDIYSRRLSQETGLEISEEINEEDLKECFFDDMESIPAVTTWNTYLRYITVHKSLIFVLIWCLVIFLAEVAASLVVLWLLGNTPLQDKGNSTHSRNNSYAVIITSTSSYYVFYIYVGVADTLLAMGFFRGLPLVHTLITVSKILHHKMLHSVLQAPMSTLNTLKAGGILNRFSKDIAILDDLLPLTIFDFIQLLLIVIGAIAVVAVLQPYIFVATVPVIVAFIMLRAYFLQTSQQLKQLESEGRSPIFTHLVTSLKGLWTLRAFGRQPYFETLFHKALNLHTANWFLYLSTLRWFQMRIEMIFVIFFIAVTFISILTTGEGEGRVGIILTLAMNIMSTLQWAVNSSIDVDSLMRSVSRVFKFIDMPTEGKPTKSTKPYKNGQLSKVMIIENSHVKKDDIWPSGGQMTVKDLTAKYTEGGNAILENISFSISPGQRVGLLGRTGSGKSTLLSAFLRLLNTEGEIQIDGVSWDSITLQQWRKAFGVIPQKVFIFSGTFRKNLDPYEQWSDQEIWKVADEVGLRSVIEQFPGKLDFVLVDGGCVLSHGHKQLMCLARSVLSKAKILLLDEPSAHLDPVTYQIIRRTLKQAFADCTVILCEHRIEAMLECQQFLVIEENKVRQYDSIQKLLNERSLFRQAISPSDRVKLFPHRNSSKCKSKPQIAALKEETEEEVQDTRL

Structure (SMILES)	% Activation (ΔF508-CFTR [1]) [%]	EC50 (ΔF508-CFTR [1]) [nM]	% Activation (ΔF508-CFTR [2]) [%]	EC50 (ΔF508-CFTR [2]) [nM]
CNS(=O)(=O)NC(=O)c1cc(N2CCC(N3CCOCC3)CC2)c2c(C3CCC3)nn(-c3ccc(F)cc3)c2n1 [Compound 517, 3-cyclobutyl-1-(4-fluorophenyl)-N-(methylsulfamoyl)-4-[4-(morpholin-4-yl)piperidin-1-yl]-1H-pyrazolo[3,4-b]pyridine-6-carboxamide]	520.08	75.8	320.5	184
CN1CCN(Cc2cc(C(=O)NS(C)(=O)=O)nc3c2c(C2CCC2)nn3-c2ccc(F)cc2)CC1 [Compound 518, 3-cyclobutyl-1-(4-fluorophenyl)-N-(methanesulfonyl)-4-[(4-methylpiperazin-1-yl)methyl]-1H-pyrazolo[3,4-b]pyridine-6-carboxamide]	189.55	3130	35.86	–
CS(=O)(=O)NC(=O)c1cc(CN2CCOCC2)c2c(C3CCC3)nn(-c3ccc(F)cc3)c2n1 [Compound 519, 3-cyclobutyl-1-(4-fluorophenyl)-N-(methanesulfonyl)-4-[(morpholin-4-yl)methyl]-1H-pyrazolo[3,4-b]pyridine-6-carboxamide]	252.3	1020	114.4	3330
CN(C)S(=O)(=O)NC(=O)c1cc(CN2CCOCC2)c2c(C3CCC3)nn(-c3ccc(F)cc3)c2n1 [Compound 520, 3-cyclobutyl-N-(dimethylsulfamoyl)-1-(4-fluorophenyl)-4-[(morpholin-4-yl)methyl]-1H-pyrazolo[3,4-b]pyridine-6-carboxamide]	207.1	924	60	1060
COCC1CCN(Cc2cc(C(=O)NS(=O)(=O)N(C)C)nc3c2c(C2CCC2)nn3-c2ccc(F)cc2)CC1 [Compound 521, 3-cyclobutyl-N-(dimethylsulfamoyl)-1-(4-fluorophenyl)-4-{[4-(methoxymethyl)piperidin-1-yl]methyl}-1H-pyrazolo[3,4-b]pyridine-6-carboxamide]	217.3	712	31.93	–
COC1CCN(C2CCN(c3cc(C(=O)NS(=O)(=O)N(C)C)nc4c3c(C3CCC3)nn4-c3ccc(F)cc3)CC2)C1 (stereo not drawn) [Compound 524, 3-cyclobutyl-N-(dimethylsulfamoyl)-1-(4-fluorophenyl)-4-[4-(3-methoxypyrrolidin-1-yl)piperidin-1-yl]-1H-pyrazolo[3,4-b]pyridine-6-carboxamide]	398.75	308	209.35	525
CN(C1CCOCC1)C1CCN(c2cc(C(=O)NS(=O)(=O)N(C)C)nc3c2c(C2CCC2)nn3-c2ccc(F)cc2)CC1 [Compound 528, 3-cyclobutyl-N-(dimethylsulfamoyl)-1-(4-fluorophenyl)-4-{4-[methyl(oxan-4-yl)amino]piperidin-1-yl}-1H-pyrazolo[3,4-b]pyridine-6-carboxamide]	357.9	834	185.8	859
COCC1CCN(c2cc(C(=O)NS(=O)(=O)N(C)C)nc3c2c(C2CCC2)nn3-c2ccnc(C3CCOCC3)c2)CC1 [Compound 531, 3-cyclobutyl-N-(dimethylsulfamoyl)-4-[4-(methoxymethyl)piperidin-1-yl]-1-[2-(oxan-4-yl)pyridin-4-yl]-1H-pyrazolo[3,4-b]pyridine-6-carboxamide]	349.65	63.5	182.8	234
CN(C)S(=O)(=O)NC(=O)c1cc(N2CCC(N3CC4CC3CO4)CC2)c2c(C3CCC3)nn(-c3ccc(F)cc3)c2n1 (stereo not drawn) [Compound 532, 3-cyclobutyl-N-(dimethylsulfamoyl)-1-(4-fluorophenyl)-4-[4-(2-oxa-5-azabicyclo[2.2.1]heptan-5-yl)piperidin-1-yl]-1H-pyrazolo[3,4-b]pyridine-6-carboxamide]	342.83	473	151.95	521
CN(C)S(=O)(=O)NC(=O)c1cc(N2CCC3(CC2)CC(N2CCOCC2)CO3)c2c(C3CCC3)nn(-c3ccc(F)cc3)c2n1 (stereo not drawn) [Compound 533, 3-cyclobutyl-N-(dimethylsulfamoyl)-1-(4-fluorophenyl)-4-[3-(morpholin-4-yl)-1-oxa-8-azaspiro[4.5]decan-8-yl]-1H-pyrazolo[3,4-b]pyridine-6-carboxamide]	322.45	221	156.3	222
CC(C)Oc1nn(C2CCCCC2)c2nc(C(=O)NS(=O)(=O)N(C)C)cc(-c3ccc(N4CCN(C(C)C)CC4)cc3)c12 [Compound 534, 1-cyclohexyl-N-(dimethylsulfamoyl)-3-[(propan-2-yl)oxy]-4-{4-[4-(propan-2-yl)piperazin-1-yl]phenyl}-1H-pyrazolo[3,4-b]pyridine-6-carboxamide]	289.35	344	105	241
CN(C)S(=O)(=O)NC(=O)c1cc(-c2ccc(N3CCN(C4CC4)CC3)nc2)c2c(C3CCC3)nn(C3CCCCC3)c2n1 [Compound 536, 3-cyclobutyl-1-cyclohexyl-4-[6-(4-cyclopropylpiperazin-1-yl)pyridin-3-yl]-N-(dimethylsulfamoyl)-1H-pyrazolo[3,4-b]pyridine-6-carboxamide]	341.15	280	125.1	225
COC1CCN(S(=O)(=O)NC(=O)c2cc(N3CCC(N4CCOCC4)CC3)c3c(C4CCC4)nn(-c4ccc(F)cc4)c3n2)C1 (stereo not drawn) [Compound 538, 3-cyclobutyl-1-(4-fluorophenyl)-N-(3-methoxypyrrolidine-1-sulfonyl)-4-[4-(morpholin-4-yl)piperidin-1-yl]-1H-pyrazolo[3,4-b]pyridine-6-carboxamide]	427.95	358	228.9	2070
CN(C)S(=O)(=O)NC(=O)c1cc(-c2ccc(N3CCC(C#N)CC3)nc2)c2c(C3CCC3)nn(-c3ccccc3)c2n1 [Compound 539, 4-[6-(4-cyanopiperidin-1-yl)pyridin-3-yl]-3-cyclobutyl-N-(dimethylsulfamoyl)-1-phenyl-1H-pyrazolo[3,4-b]pyridine-6-carboxamide]	429.3	38.6	234.5	71.7
COCC1CCN(S(=O)(=O)NC(=O)c2cc(N3CCC(N4CCOCC4)CC3)c3c(C4CCC4)nn(-c4ccc(F)cc4)c3n2)CC1 [Compound 540, 3-cyclobutyl-1-(4-fluorophenyl)-N-[4-(methoxymethyl)piperidine-1-sulfonyl]-4-[4-(morpholin-4-yl)piperidin-1-yl]-1H-pyrazolo[3,4-b]pyridine-6-carboxamide]	443.3	103	248.8	123
CC(C)N1CCN(c2ccc(-c3cc(C(=O)NS(=O)(=O)N(C)C)nc4c3c(C3CCC3)nn4C3CCCCC3)cn2)CC1 [Compound 542, 3-cyclobutyl-1-cyclohexyl-N-(dimethylsulfamoyl)-4-{6-[4-(propan-2-yl)piperazin-1-yl]pyridin-3-yl}-1H-pyrazolo[3,4-b]pyridine-6-carboxamide]	320.3	216	153.2	267
CC(c1ccc(-c2cc(C(=O)NS(=O)(=O)N(C)C)nc3c2c(C2CCC2)nn3C2CCCCC2)cc1)N1CCOCC1 (stereo not drawn) [Compound 543, 3-cyclobutyl-1-cyclohexyl-N-(dimethylsulfamoyl)-4-{4-[1-(morpholin-4-yl)ethyl]phenyl}-1H-pyrazolo[3,4-b]pyridine-6-carboxamide]	336.1	139	115.7	238
CC(C)Oc1nn(C2CCCCC2)c2nc(C(=O)NS(C)(=O)=O)cc(-c3ccc(C(=O)N4CCC(N(C)C)CC4)cc3)c12 [Compound 544, 1-cyclohexyl-4-{4-[4-(dimethylamino)piperidine-1-carbonyl]phenyl}-N-(methanesulfonyl)-3-[(propan-2-yl)oxy]-1H-pyrazolo[3,4-b]pyridine-6-carboxamide]	344.9	2000	135.3	3330
COCCS(=O)(=O)NC(=O)c1cc(-c2ccc(C(=O)N3CCC(N(C)C)CC3)cc2)c2c(OC(C)C)nn(C3CCCCC3)c2n1 [Compound 545, 1-cyclohexyl-4-{4-[4-(dimethylamino)piperidine-1-carbonyl]phenyl}-N-(2-methoxyethanesulfonyl)-3-[(propan-2-yl)oxy]-1H-pyrazolo[3,4-b]pyridine-6-carboxamide]	318.7	1910	112.7	3330
COC1CCN(C2CCN(c3cc(C(=O)NS(C)(=O)=O)nc4c3c(C3CCC3)nn4-c3ccc(F)cc3)CC2)CC1 [Compound 548, 3-cyclobutyl-1-(4-fluorophenyl)-N-(methanesulfonyl)-4-(4-methoxy[1,4'-bipiperidin]-1'-yl)-1H-pyrazolo[3,4-b]pyridine-6-carboxamide]	556.9	553	307.2	654
